Data set [1] concerns the target T1, Cytochrome P450 1A2 (Homo sapiens, UniProt P05177).
T1 sequence (P05177 whole entry): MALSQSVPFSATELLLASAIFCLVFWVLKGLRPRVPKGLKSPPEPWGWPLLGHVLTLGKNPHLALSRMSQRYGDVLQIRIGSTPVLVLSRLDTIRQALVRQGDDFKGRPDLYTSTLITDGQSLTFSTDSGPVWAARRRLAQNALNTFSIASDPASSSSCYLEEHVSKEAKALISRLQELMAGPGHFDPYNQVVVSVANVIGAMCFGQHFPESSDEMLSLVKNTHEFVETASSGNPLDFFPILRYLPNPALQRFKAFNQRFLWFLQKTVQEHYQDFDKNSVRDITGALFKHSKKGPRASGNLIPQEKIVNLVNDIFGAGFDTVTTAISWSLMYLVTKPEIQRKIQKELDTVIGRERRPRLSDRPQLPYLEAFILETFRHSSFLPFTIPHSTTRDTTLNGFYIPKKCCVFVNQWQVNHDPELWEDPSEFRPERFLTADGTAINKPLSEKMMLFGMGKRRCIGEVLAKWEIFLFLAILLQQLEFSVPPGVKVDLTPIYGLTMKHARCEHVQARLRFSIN
The data set is described as follows: Inhibition of CYP1A2 (unknown origin). Type of data set: ADME.

The test system of data set [2] is Rattus norvegicus. The data set is described as follows: Analgesic activity in rat model of partial sciatic nerve ligation-induced neuropathic pain assessed as maximum efficacy at 3 mg/kg, po relative to control. It counts as functional.
Data set [3] in a line: Ratio of plasma concentration in rat measured after 3 hrs to IC50 of P2X3 (unknown origin). It counts as ADME. The note with it: in vivo.
A short description of data set [4]: Oral bioavailability in rat at 3 mg/kg. Type of data set: ADME, organism-based. The note with it: in vivo.
The target of data set [5] is T2, P2X purinoceptor 4 (Homo sapiens, UniProt Q99571).
T2 sequence (Q99571 whole entry): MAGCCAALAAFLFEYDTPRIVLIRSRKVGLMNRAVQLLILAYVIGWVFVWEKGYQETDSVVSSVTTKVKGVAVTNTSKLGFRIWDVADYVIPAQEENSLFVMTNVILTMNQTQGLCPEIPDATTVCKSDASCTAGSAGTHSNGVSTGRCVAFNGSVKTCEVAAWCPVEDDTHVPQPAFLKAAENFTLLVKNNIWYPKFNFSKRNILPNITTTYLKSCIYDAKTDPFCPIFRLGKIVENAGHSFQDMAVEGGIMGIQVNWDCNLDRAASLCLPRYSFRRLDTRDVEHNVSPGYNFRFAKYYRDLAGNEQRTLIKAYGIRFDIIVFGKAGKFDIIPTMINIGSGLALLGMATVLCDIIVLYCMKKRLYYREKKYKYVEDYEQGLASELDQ
Nature of the data set: Antagonist activity at P2X4 receptor (unknown origin).

Some results are limits rather than exact numbers.

The values below come from ChEMBL document CHEMBL5030545, “Discovery of clinical candidate Sivopixant (S-600918): Lead optimization of dioxotriazine derivatives as selective P2X3 receptor antagonists” (Bioorg Med Chem Lett, 2021).

For `C[C@@H](Cn1c(=O)[nH]/c(=N\c2ccc(Oc3ccccn3)cc2)n(Cc2ccc(Cl)cc2)c1=O)C(=O)O`, the figures for the half-maximal inhibitory concentration (IC50) in data set [1] and in data set [5] were above 20 µM and above 30 µM, respectively. Also, the Emax at 3 mg/kg in data set [2] stood at 64%. Further, in data set [3], the Ratio came out at 156.9. Besides, the bioavailability in data set [4] turned out to be 76.8%.

The term IC50 denotes the concentration that gives 50% inhibition. A higher IC50 goes with weaker potency. Broadly, the Emax is the greatest response seen or fitted, relative to the assay's reference. As usually defined, the bioavailability is the share of a dose that reaches the circulation, judged against a reference dose that is usually intravenous. A lower bioavailability goes with little systemic uptake.
